These results are taken from paper PMC5320394, “Development of a Novel Formulation That Improves Preclinical Bioavailability of Tenofovir Disoproxil Fumarate” (Journal of Pharmaceutical Sciences, 2017).

Like-named read-outs stand apart in the source and are kept apart here.

For one series, the system named is Caco-2 cell monolayers. The class given is in vitro ADME. The settings on record: 1 mM BNPP, 1 mM PP, 0.05% wt/vol EM1, 0.5 mg/mL TPGS, 10 μM CsA, 2 μM GF918.
In another series the test system is rat intestinal S9. The series is described as follows: TDF stability in rat intestinal S9 fraction and effect of inhibitors. The settings on record: for inhibition of TDF hydrolysis: rat S9.
The test system of another series is human intestinal S9. Description: TDF stability in human intestinal S9 fraction and effect of inhibitors. The settings on record: for inhibition of TDF hydrolysis: human S9.
The test system of series [1] is porcine pancrelipase (PL). The series is described as follows: Hydrolysis of TDF by PL and effect of enzyme inhibitors. The series is classed as biochemical. The settings on record: PP or MP together or alone, FaSSIF with PL.
Experimental: TDF solutions were prepared at 10 μM and incubated in triplicate at 37°C in FaSSIF containing PL at 480 U/mL with and without inhibitors. Inhibitors were added at 10% vol/vol for the oils (sesame, olive, safflower, soybean, and coconut); at 10 mM for PP, MP, and EM1; and at 0.05 mM/0.002 mM for EDTA/PMSF. Controls consisted of TDF in transport media or FaSSIF with and without PL. Samples were incubated at 37°C and quenched with acetonitrile at 10, 15, 20, and 30 min. For each time point, the % TDF or % TFV-ME remaining was determined by LC-MS/MS as described below.
For series [2], the system named is rat intestinal homogenates. Further details: method as in PMID 12124311. The settings on record: cited from earlier work.
Another series is described as follows: in vivo. Set-up: species or system Sprague-Dawley rats. The settings on record: rat, given IV; for AUC: male, Sprague-Dawley, plasma, iv, AUC0-8h.
In the next series the test system is lymphocytes. Set-up: method as in PMID 9517941. The settings on record: cited from earlier work.
Another series has as its system MDCK-MDR1 cells (P-gp). The series is described as follows: MDCK-MDR1 efflux studies. The series is classed as in vitro ADME, canine. The settings on record: for Papp, A to B / Papp, B to A: (SEM). As for the experimental part: MDCK-MDR1 cells (Netherlands Cancer Institute) were seeded at a density of 3 × 10^5 cells per well onto microporous polycarbonate membranes in 12-well Costar Transwell plates (Corning, Inc.). The cells were incubated for 3 days during which time they formed confluent monolayers. Monolayer integrity was checked using a Millicell-ERS instrument (Millipore) to determine the transepithelial electrical resistance (TEER) across the monolayer. […] […] Competency of the P-gp efflux transporter was confirmed by assay of propranolol (nonsubstrate) and amprenavir (substrate). Cell monolayers were incubated in triplicate with shaking (160 rpm) at 37°C for 2 h. Samples were removed from the apical and basolateral compartments after incubation and assayed for test compound concentrations by LC-MS/MS.
Conditions were similar to those used for Caco-2 analyses. Differences included the use of a Phenomenex Synergi Hydro-RP column (4 μm, 2.1 × 50 mm) at 60°C, mobile phases of aqueous 0.2% formic acid (A) and neat methanol (B), and a rapid 0.9 min gradient from 0% to 95% B.

In series [3] the test system is porcine pancrelipase (PL). The series is described as follows: Stability in SGF and FaSSIF with and without PL. The series is classed as in vitro ADME. The settings on record: 37°C. The method, then:
Samples were incubated at 37°C and quenched with acetonitrile at 0, 15, 30, 60, 90, and 120 min. For each time point, the % TDF or % TFV-ME remaining was determined by LC-MS/MS as described below.

[4] abbreviates: rat S9, 10 μM TDF, 37°C, 10 μM BNPP, 100 μM PMSF, 0.05% wt/vol EM1, 1 mM PP, 1 mM MP, 1 mM EP.
Setting [5] is: human S9, 10 μM TDF, 37°C, 10 μM BNPP, 100 μM PMSF, 0.05% wt/vol EM1, 1 mM PP, 1 mM MP, 1 mM EP.

As a reminder, the AUC is concentration integrated over time.

Experimental for Caco-2 cell monolayers: Caco-2 monolayer experiments were performed as previously described[30] with a few modifications. […] Following incubation, the media was replaced to remove dead cells and prevent the formation of multiple layers of cells settling on the filter. Media was then changed every 2-3 days and plates were used in experiments after a total of 21 days from initial seeding. Monolayer integrity was checked before and after each experiment using a Millicell-ERS instrument to determine the TEER across the monolayer and to ensure that there was no substantial change in monolayer integrity throughout the duration of an experiment. On the day of the experiment, the TEER was assessed and the media in each plate was replaced with warm HBSS (pH 7) and allowed to equilibrate (37°C, 30 min). Apical (for apical-to-basolateral [A-to-B] transport) chambers were replaced with HBSS containing 10 μM (final concentration, n = 3 reps) aqueous solution of drug and inhibitors. Samples were taken from both apical and basolateral compartments at 120 min and diluted into an appropriate solvent to allow drug quantitation using LC-MS/MS.
Samples from permeability assays were also diluted into Mobile Phase A prior to analysis.
Mobile Phase A was 3/1/96 acetonitrile/acetic acid/water and Mobile Phase B was 96/1/3 acetonitrile/acetic acid/water. Rather than isocratic elution, a gradient program was used. The gradient program held at 0% B for 1 min, ramped to 98% B from 1 to 2 min, held at 98% B from 2 to 3 min, and then returned to initial conditions. Q1/Q3 ions for TFV-ME and TDF were 404.0/270.0 and 520.1/270.0, respectively.
Experimental for human intestinal S9: (§1) TDF solutions were prepared at 10 μM in rat or human intestinal S9 fraction (0.5 mg protein/mL). Inhibitors were added to the solutions. […] Control samples included buffer, human S9, or rat S9 solutions with only TDF. Samples were incubated at 37°C for 0, 5, 10, 15, 20, and 30 min and then analyzed by LC-MS/MS for TDF, TFV-ME, TFV, and PP (to quantify stability).
(§2) Samples from S9 incubations were analyzed using the LC-MS/MS conditions described earlier for Caco-2 samples.
Experimental for rat intestinal S9: as §1, §2

`O=[N+]([O-])c1ccc(OP(=O)(O)Oc2ccc([N+](=O)[O-])cc2)cc1` [BNPP, Bis-para-nitrophenylphosphate]: in the series on Caco-2 cell monolayers (Caco-2, versus no inhibitor), the “Fold Increase, TDF (A to B transport)” value stood at 6.2 fold and the “Fold Increase, TFV Family (A to B transport)” value amounted to 3.1 fold. In the series with Caco-2 cell monolayers (Caco-2 A to B, 10 μM, 120 min), the “% Measured Basolateral, TDF (median), with inhibitor(s)” value is given as 4.88%; the “% Measured Basolateral, TNF (median), with inhibitor(s)” value is recorded as 0.00%; the “% Measured Basolateral, TNF-ME (median), with inhibitor(s)” value turned out to be 0.55%. In addition, the “TDF Rate Constant with inhibitor” value with rat intestinal S9 is -0.016 min⁻¹. For the same compound, the “TDF Rate Constant with inhibitor” value in the series with human intestinal S9 is -0.009 min⁻¹.

For `CCOC(=O)c1ccc(O)cc1` [EP, ethylparaben], the “TDF Rate Constant with inhibitor” value in the series on rat intestinal S9 (setting [4]) is -1.023 min⁻¹; in the series on human intestinal S9 (setting [5]), -0.210 min⁻¹. In addition, the “inhibition of TDF hydrolysis” value in the series on rat intestinal S9 (100 μM PMSF, 1 mM EP, 1 mM MP) is reported as “did not show any substantial inhibition”; in the series with human intestinal S9 (100 μM PMSF, 1 mM EP, 1 mM MP), “did not show any substantial inhibition”.

Consider `COC(=O)c1ccc(O)cc1` [MP, methylparaben], for which the “protection of TDF against PL hydrolysis” value in [1] is recorded as “did not protect TDF”. For the same compound, the “TDF Rate Constant with inhibitor” value in the series with rat intestinal S9 (setting [4]) was -1.297 min⁻¹; in the series on human intestinal S9 (setting [5]) it was -1.065 min⁻¹. For the same compound, the “inhibition of TDF hydrolysis” value with rat intestinal S9 (100 μM PMSF, 1 mM EP, 1 mM MP) was “did not show any substantial inhibition”; in the series on human intestinal S9 (100 μM PMSF, 1 mM EP, 1 mM MP), “did not show any substantial inhibition”.

Turning to `O=S(=O)(F)Cc1ccccc1` [PMSF, phenylmethylsulfonyl fluoride], the “TDF Rate Constant with inhibitor” value in the series with rat intestinal S9 (setting [4]) was -1.064 min⁻¹; in the series with human intestinal S9 (setting [5]), -0.185 min⁻¹. In addition, the “inhibition of TDF hydrolysis” value is on record as “did not show any substantial inhibition” in the series with rat intestinal S9 (100 μM PMSF, 1 mM EP, 1 mM MP) and “did not show any substantial inhibition” in the series on human intestinal S9 (100 μM PMSF, 1 mM EP, 1 mM MP).

`CCCOC(=O)c1ccc(O)cc1` [PP, propylparaben]: the “inhibition of TDF metabolism” value in [2] is given as 94.5%. The “protection of TDF against PL hydrolysis” value in series [1] is on record as “did not protect TDF”. Besides, the “TDF Rate Constant with inhibitor” value is -0.196 min⁻¹ in the series with rat intestinal S9 (setting [4]) and -0.035 min⁻¹ in the series on human intestinal S9 (setting [5]).

Take `C[C@H](Cn1cnc2c(N)ncnc21)OCP(=O)(O)O` [TFV, tenofovir]: the AUC in the series “in vivo” (read-out: TFV AUC, Mean) amounted to 3210 ng·h/mL; in the series “in vivo” (read-out: TFV AUC, Median) it was 3200 ng·h/mL. In addition, in the series “in vivo” (versus oral TDF Control), the “TFV AUC, Median Fold Increase” value amounted to 2.85 fold. Further, the intracellular half-life is 12 to 15 h in the series with lymphocytes (activated lymphocytes) and 33 to 50 h in the series on lymphocytes (resting lymphocytes).

On to `CC(C)OC(=O)OCOP(=O)(O)CO[C@H](C)Cn1cnc2c(N)ncnc21` [TFV-ME, tenofovir monophosphonate ester], for which the Efflux ratio with MDCK-MDR1 cells (P-gp) (MDCK-MDR1, 0 μM GF918) was found to be 2.1; in the series with MDCK-MDR1 cells (P-gp) (MDCK-MDR1, 2 μM GF918) it was 0.9. The “Papp, A to B” value is on record as 4.1 (0.20) nm/s in the series on MDCK-MDR1 cells (P-gp) (MDCK-MDR1, 0 μM GF918, 120 min) and 5.3 (0.61) nm/s with MDCK-MDR1 cells (P-gp) (MDCK-MDR1, 2 μM GF918, 120 min). Also, the “Papp, B to A” value in the series with MDCK-MDR1 cells (P-gp) (MDCK-MDR1, 0 μM GF918, 120 min) is 8.8 (0.60) nm/s; with MDCK-MDR1 cells (P-gp) (MDCK-MDR1, 2 μM GF918, 120 min) it was 5.0 (0.58) nm/s. The “half-life in FaSSIF with PL” value in series [3] (10 μM, PL 480 U/mL) came out at 0.633 ± 0.0333 h. The “stability in SGF and FaSSIF” value in [3] (without PL, up to 120 min, TDF 10 μM) is on record as “stable”.
